These results are taken from patent publication US9546164B2 (GENENTECH, INC., priority 2013, dated 2017).

Structures can show the parent of a compound that is named as a salt.

For one experiment, the target named is hNav1.7 (Homo sapiens (Human), UniProt Q15858). Kind of experiment: Tritiated sulfonamide competitive binding to membranes from cells expressing hNav1.7 and the β1 subunit.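 Further: Filter-bound radioactivity counted by liquid scintillation, nonspecific binding defined with excess unlabelled ligand, IC50 fitted to percent inhibition of specific binding.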
hNav1.7, sequence (Q15858 other isoform, or with tags, fused parts or gaps): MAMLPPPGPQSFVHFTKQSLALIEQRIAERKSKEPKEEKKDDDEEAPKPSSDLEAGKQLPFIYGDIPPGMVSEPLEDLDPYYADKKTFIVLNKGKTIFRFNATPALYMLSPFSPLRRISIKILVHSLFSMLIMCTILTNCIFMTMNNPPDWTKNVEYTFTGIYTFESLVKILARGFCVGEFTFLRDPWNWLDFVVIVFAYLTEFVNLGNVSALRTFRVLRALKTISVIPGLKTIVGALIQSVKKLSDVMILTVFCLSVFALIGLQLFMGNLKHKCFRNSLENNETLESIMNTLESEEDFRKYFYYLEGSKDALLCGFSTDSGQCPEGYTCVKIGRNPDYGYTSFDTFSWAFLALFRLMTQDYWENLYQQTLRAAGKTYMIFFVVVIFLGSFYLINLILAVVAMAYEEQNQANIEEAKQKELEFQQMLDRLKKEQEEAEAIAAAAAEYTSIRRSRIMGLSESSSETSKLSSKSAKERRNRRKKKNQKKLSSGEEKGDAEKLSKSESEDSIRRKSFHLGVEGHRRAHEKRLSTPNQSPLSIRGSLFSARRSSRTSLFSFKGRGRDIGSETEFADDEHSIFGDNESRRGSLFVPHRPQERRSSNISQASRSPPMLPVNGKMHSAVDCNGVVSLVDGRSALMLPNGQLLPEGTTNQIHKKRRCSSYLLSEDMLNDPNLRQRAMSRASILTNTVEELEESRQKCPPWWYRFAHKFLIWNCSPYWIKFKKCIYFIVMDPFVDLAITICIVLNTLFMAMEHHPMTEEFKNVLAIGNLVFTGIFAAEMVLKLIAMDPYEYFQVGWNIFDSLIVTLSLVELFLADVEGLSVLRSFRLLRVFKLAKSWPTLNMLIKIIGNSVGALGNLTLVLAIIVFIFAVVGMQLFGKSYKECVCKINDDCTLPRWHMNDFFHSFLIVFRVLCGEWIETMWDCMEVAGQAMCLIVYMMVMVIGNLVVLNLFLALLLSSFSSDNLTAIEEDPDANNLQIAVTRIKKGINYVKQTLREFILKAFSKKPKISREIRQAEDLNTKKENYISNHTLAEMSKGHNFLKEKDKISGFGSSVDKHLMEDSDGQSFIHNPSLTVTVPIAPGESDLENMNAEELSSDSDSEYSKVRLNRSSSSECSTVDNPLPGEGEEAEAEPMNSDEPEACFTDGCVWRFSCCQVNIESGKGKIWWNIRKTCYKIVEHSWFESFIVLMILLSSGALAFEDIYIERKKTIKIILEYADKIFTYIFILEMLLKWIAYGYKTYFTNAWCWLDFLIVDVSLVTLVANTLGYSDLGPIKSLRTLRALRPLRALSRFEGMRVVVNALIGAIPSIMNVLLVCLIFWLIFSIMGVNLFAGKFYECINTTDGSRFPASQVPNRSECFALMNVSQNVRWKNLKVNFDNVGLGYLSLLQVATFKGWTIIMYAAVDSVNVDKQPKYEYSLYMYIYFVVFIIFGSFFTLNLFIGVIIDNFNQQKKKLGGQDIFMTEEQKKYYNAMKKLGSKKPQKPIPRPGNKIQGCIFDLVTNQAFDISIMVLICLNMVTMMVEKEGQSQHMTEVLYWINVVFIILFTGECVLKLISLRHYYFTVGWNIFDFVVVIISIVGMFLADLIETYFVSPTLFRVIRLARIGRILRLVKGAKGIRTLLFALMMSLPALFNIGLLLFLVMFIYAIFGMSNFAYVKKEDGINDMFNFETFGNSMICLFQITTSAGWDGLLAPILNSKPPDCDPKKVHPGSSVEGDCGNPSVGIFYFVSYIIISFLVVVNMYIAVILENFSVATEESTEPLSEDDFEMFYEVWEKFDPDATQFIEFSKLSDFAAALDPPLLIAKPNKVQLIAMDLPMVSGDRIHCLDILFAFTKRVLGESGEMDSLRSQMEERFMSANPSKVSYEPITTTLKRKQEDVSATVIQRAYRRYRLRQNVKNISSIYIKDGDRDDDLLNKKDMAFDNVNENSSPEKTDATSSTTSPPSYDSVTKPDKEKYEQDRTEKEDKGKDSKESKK
hNav1.7, sequence (Q07699 19-218 partner): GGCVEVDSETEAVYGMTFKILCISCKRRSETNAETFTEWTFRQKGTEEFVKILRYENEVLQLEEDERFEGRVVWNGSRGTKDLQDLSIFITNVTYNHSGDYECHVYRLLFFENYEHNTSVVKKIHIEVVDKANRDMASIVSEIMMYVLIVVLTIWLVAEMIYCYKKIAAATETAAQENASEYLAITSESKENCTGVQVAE
Conditions: not given
The compound `CC(C)(C)N1CCC[C@@H](Oc2cc(F)c(C(=O)NS(C)(=O)=O)cc2C2CC2)C1` [Example 538, (R)-4-((1-(tert-butyl)piperidin-3-yl)oxy)-5-cyclopropyl-2-fluoro-N-(methylsulfonyl)benzamide] came in with an IC50 of 7120 nM. `O=C(NS(=O)(=O)C1CC1)c1cc(C2CC2)c(CN2CCC([S+]([O-])c3cc(Cl)cc(Cl)c3)CC2)cc1F` (stereo not drawn) [Example 535, 5-cyclopropyl-N-(cyclopropylsulfonyl)-4-((4-((3,5-dichlorophenyl)sulfinyl)piperidin-1-yl)methyl)-2-fluorobenzamide, trifluoroacetic acid salt] had an IC50 of 720 nM. `O=C(NS(=O)(=O)C1CC1)c1cc(C2CC2)c(CN2CCN(Cc3cc(Cl)cc(Cl)c3)CC2)cc1F` [Example 518, 5-cyclopropyl-N-(cyclopropylsulfonyl)-4-((4-(3,5-dichlorobenzyl)piperazin-1-yl)methyl)-2-fluorobenzamide, trifluoroacetic acid salt]: the IC50 came out at 8.2 nM. `O=C(NS(=O)(=O)N1CCC1)c1cc(C2CC2)c(O[C@@H]2CCCN(Cc3ccccc3Cl)C2)cc1F` [Example 25, (R)—N-(azetidin-1-ylsulfonyl)-4-((1-(2-chlorobenzyl)piperidin-3-yl)oxy)-5-cyclopropyl-2-fluorobenzamide] showed an IC50 of 3.2 nM.

Staying with this experiment, now noted: read-out: Ligand Binding Assay; 100 pM [3H]compound, membranes with hNav1.7 and β1 subunit, 18 h, room temperature.
Turning to `O=C(NS(=O)(=O)N1CCC1)c1cc(C2CC2)c(OCC2CCN(C(c3ccc(F)cc3)c3ccc(F)cc3)CC2)cc1F` [Example 419, N-azetidin-1-ylsulfonyl)-4-((1-(bis(4-fluorophenyl)methyl)piperidin-4-yl)methoxy)-5-cyclopropyl-2-fluorobenzamide, trifluoroacetic acid salt], the IC50 was determined as 5.2 nM. In the case of `Cc1ccc(CN2CCC[C@@H](Oc3cc(F)c(C(=O)NS(C)(=O)=O)cc3C3CC3)C2)cc1C` [Example 439, (R)-5-cyclopropyl-4-((1-(3,4-dimethylbenzyl)piperidin-3-yl)oxy)-2-fluoro-N-(methylsulfonyl)benzamide, trifluoracetic acid salt], the IC50 worked out at 11 nM.

Consider `CCS(=O)(=O)NC(=O)c1cc(C2CC2)c(OCC2CCN(C(C)c3cc(Cl)cc(Cl)c3)CC2)cc1F` (stereo not drawn) [Example 101, 5-Cyclopropyl-4-((1-(1-(3,5-dichlorophenyl)ethyl)piperidin-4-yl)methoxy)-N-(ethylsulfonyl)-2-fluorobenzamide], for which the IC50 was 3.76 nM. `CS(=O)(=O)NC(=O)c1cc(C2CC2)c(OCC2CN([C@H](c3ccccc3)c3cccnc3)C2)cc1F` [Example 81, (R)-5-Cyclopropyl-2-fluoro-N-(methylsulfonyl)-4-((1-(phenyl(pyridin-3-yl)methyl)azetidin-3-yl)methoxy)benzamide]: the IC50 is 630 nM. For `CC1(COc2cc(F)c(C(=O)NS(=O)(=O)C3CC3)cc2C2CC2)CN(c2ncc(Cl)cc2F)C1` [Example 483, 4-((1-(5-chloro-3-fluoropyridin-2-yl)-3-methylazetidin-3-yl)methoxy)-5-cyclopropyl-N-(cyclopropylsulfonyl)-2-fluorobenzamide], the IC50 was 5.2 nM. In the case of `O=C(NS(=O)(=O)C1CC1)c1cc(C2CC2)c(CN2CCC(Oc3cc(Cl)cc(Cl)c3)CC2)cc1F` [Example 57, 5-cyclopropyl-N-(cyclopropylsulfonyl)-4-((4-(3,5-dichlorophenoxy)piperidin-1-yl)methyl)-2-fluorobenzamide, trifluoroacetic acid salt], the IC50 amounted to 3.8 nM. `CC1(COc2cc(F)c(C(=O)NS(C)(=O)=O)cc2C2CC2)CCN(C2(c3cc(Cl)cc(Cl)c3)COC2)CC1` [Example 178, 5-Cyclopropyl-4-((1-(3-(3,5-dichlorophenyl)oxetan-3-yl)-4-methylpiperidin-4-yl)methoxy)-2-fluoro-N-(methylsulfonyl)benzamide]: the IC50 is 7.6 nM.

In the case of `CC1(COc2cc(F)c(C(=O)NS(C)(=O)=O)cc2C2CC2)CCN(Cc2cc(Cl)cc(Cl)c2)CC1` [Example 123, 5-cyclopropyl-4-((1-(3,5-dichlorobenzyl)-4-methylpiperidin-4-yl)methoxy)-2-fluoro-N-(methylsulfonyl)benzamide], the IC50 was determined as 2.9 nM.
